According to patent publication US9562035B2, “Benzamide derivative useful as FASN inhibitors for the treatment of cancer” (Janssen Pharmaceutica NV, priority 2013, dated 2017):

Assays:
A2780 ovarian cells [1] = assay: A2780 Ovarian Cell Proliferation Assay in Lipid Reduced Medium, with Palmitate (control); assay type: cell-based; conditions: Homo sapiens, A2780; lipid reduced medium, 25 μM palmitate, 96 h, MTT; read-out: Proliferation A2780 with Palmitate pIC50 (converted)
Experimental: (§1) The biological assays described below correspond to comparative assays for ovarian cell proliferation. […] Compounds active in the absence of palmitate would not be expected to be active in the control.
(§2) 2500 cells were seeded in a 96-well clear well plate in 200 μL RPMI1640 with 10% Fetal Calf Serum (Hyclone), and incubated at 37° C., 5% CO2. Blanks were wells without cells. The next day the culture medium was aspirated and replaced by 160 μL culture medium with 10% Lipid-Reduced Serum (LRS, Hyclone). 20 μL test compound (at concentrations of 30 μM, 10 μM, 3 μM, 1 μM, 0.30 μM, 0.10 μM, 0.03 μM and 0.01 μM)/DMSO dilution followed by 20 μL palmitate-BSA solution were added to a final concentrations of 0.2% DMSO, 25 μM palmitate (Sigma, P0500, 10 mM stock solution in ethanol) 0.2% fatty-acid-free BSA, 0.25% ethanol. After 96 h incubation, an MTT assay was performed. The absorbance was measured at 544 nm on a SPECTRAMAX.
A best fit curve was fitted by a minimum sum of squares method, plotting Controlmin versus test compound concentration. From the plot, an IC50 (concentration at which 50% inhibition is achieved) was calculated. pIC50 values, presented in the Table below, were calculated as −log(IC50).
(§3) Representative compounds of the present invention were tested according to the procedure as described in Biological Example 3 above, with results as listed in Table BIO-3, below.

[2] = target: T1, hFASN enzyme (full length) (Homo sapiens, UniProt P49327); assay: Fatty Acid Synthase (FASN) Inhibition Scintillation Proximity Assay; assay type: biochemical; conditions: for IC50: mean where tested more than once, ~ = standard error of pIC50 larger than 0.5; for inhibition at 10 µM: read-out: FASN % Effect @1E−05M
T1 construct: 10 μL hFASN enzyme (full length, 300 ng, purified in house); made in house
T1 sequence (P49327 whole entry): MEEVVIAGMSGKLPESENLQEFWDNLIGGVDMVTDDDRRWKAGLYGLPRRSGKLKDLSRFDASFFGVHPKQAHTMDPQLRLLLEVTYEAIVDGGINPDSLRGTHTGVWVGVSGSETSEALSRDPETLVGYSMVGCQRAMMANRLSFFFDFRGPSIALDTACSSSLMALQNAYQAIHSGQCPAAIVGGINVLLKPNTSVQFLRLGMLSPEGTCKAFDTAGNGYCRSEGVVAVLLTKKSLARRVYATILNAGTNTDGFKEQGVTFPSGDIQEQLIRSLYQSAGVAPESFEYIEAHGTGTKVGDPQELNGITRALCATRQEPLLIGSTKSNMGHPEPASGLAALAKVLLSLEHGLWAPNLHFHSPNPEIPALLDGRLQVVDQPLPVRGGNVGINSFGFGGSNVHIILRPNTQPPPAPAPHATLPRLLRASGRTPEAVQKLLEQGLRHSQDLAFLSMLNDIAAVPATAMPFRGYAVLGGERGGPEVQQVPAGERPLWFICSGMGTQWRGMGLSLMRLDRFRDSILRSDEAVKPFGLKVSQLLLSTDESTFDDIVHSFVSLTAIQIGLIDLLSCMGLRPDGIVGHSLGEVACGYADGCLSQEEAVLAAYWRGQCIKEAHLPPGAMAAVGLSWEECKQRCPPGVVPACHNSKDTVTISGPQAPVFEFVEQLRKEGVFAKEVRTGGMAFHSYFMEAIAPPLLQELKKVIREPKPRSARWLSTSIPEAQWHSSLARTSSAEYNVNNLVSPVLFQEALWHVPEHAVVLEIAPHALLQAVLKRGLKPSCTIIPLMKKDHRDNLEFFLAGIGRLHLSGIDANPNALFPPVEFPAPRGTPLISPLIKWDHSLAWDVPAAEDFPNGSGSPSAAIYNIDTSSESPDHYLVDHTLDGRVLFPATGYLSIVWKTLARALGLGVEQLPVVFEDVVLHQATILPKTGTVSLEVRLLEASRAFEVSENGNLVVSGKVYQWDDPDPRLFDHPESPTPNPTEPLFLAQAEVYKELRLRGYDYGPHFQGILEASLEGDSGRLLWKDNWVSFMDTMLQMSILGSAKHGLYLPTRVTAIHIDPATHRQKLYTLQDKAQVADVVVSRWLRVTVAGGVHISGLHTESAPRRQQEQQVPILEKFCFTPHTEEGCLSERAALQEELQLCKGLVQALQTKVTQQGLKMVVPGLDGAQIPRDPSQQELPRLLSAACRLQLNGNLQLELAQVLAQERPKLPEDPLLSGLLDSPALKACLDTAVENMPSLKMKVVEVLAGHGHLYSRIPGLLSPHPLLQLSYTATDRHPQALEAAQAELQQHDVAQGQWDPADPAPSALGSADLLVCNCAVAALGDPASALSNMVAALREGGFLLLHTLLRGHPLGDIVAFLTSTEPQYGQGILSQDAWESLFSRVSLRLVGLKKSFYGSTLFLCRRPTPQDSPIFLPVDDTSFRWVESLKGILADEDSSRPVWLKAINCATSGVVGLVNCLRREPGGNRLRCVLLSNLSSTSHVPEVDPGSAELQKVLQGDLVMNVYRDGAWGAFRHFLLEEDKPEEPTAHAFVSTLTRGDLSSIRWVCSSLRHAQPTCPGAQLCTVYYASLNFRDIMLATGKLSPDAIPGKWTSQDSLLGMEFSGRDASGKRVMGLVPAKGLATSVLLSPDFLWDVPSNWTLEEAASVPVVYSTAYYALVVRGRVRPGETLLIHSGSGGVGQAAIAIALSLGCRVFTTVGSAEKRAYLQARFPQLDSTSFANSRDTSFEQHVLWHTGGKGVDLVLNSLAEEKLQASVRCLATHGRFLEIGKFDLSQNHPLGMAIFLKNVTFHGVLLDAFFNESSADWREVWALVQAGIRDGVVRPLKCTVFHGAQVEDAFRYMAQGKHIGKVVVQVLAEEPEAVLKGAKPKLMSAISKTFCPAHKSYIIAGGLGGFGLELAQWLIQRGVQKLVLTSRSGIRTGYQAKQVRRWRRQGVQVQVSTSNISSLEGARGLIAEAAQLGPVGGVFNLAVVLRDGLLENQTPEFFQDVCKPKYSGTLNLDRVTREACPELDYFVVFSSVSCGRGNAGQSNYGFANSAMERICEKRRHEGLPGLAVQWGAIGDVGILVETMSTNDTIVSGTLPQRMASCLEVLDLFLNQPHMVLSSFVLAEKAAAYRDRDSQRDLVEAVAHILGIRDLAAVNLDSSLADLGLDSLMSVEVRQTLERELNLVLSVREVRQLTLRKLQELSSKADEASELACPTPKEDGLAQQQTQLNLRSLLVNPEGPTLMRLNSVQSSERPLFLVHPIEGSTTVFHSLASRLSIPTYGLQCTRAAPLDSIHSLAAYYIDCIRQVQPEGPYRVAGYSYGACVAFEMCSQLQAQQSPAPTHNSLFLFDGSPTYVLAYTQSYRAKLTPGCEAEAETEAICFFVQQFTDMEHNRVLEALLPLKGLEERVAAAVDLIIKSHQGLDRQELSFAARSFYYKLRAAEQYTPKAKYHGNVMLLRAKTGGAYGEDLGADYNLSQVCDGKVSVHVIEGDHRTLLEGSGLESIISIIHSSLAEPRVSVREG
Experimental: In this assay, inhibition of FASN activity is measured using ^3H-acetyl-CoA and malonyl-CoA as substrates. ^3H-Acetyl CoA is converted to ^3H-palmitate through a series of reactions by the FASN protein, which contains 7 functional domains and carries out 7 enzymatic reactions to ultimately produce ^3H-palmitate. The assay principle is based upon the fact that ^3H-acetyl-CoA is hydrophilic and the end product, ^3H-palmitate is hydrophobic.
10 μL assay buffer (100 mM KH2PO4 pH 7.5, 1 mM DTT) (20 μL in blanks) was added to a 384-well white Opti Plate plate (Perkin Elmer). 0.9 μL test compound (at concentrations of 30 μM, 10 μM, 3 μM, 1 μM, 0.30 μM, 0.10 μM, 0.03 μM and 0.01 μM)/DMSO and 10 μL hFASN enzyme (full length, 300 ng, purified in house) or 10 μL assay buffer was added to the wells. Then 10 μL 450 μM NADPH (Sigma N7505), 18.75 μM [^3H]-acetyl-CoA (Perkin Elmer NET-290L), 150 μM malonyl-CoA (Sigma M4263) were added, mixed and incubated at room temperature for 60 minutes. The reaction was stopped by adding 20 μL Streptavidin coupled imaging beads (25 mg/ml). After incubation for 30 minutes at room temperature in the dark, the 384 well plate was centrifuged at 1500 rpm for 3 minutes and was measured after at least 24 hrs by the LEADseeker™, measuring emission using a 610±20 nm pass filter. (Bays, N. W., et al., “A simplified scintillation proximity assay for fatty acid synthase activity: development and comparison with other FAS activity assays”, J. Biomol. Screen, 2009, pp 636-642, Vol. 14(6).)
(§4) Raw data generated by the instrument were normalized to % Controlmin values, which were calculated as: % Controlmin=100*(x−mLC)/(mHC−mLC)
(§5) where mLC and mHC were the means of the low control wells and high control wells on the plate, after manual exclusion of outliers. A plot of Controlmin versus test compound concentration was fitted to a 4-parameter logistic curve using a non-linear least squares regression method. From the plot, an IC50 (concentration at which 50% inhibition is achieved) was calculated. pIC50 values were calculated as −log(IC50), when IC50 is expressed in molar units.

[3] = target: T2, FASN Keto-reductase Domain (Homo sapiens, UniProt P49327); assay: Fatty Acid Synthase Keto-Reductase Domain (FASN KR) Inhibition; assay type: biochemical; conditions: mean where tested more than once; read-out: FASN K-R Domain pIC50 (converted)
T2 construct: 10 μL hFASN enzyme (full length, 300 ng, purified in house) and 360 μM NADPH; made in house
T2 sequence (P49327 whole entry, the tested form may be a part): as the sequence (P49327 whole entry) above
Experimental: 10 μL assay buffer (100 mM KH2PO4 pH 7.5) was added to a 384-well clear plate (costar 3702). 0.3 μL compound (at concentrations of 30 μM, 10 μM, 3 μM, 1 μM, 0.30 μM, 0.10 μM, 0.03 μM and 0.01 μM)/DMSO, 10 μL hFASN enzyme (full length, 300 ng, purified in house) and 360 μM NADPH (except in blank) were then added. Then, 10 μL 180 mM ethyl acetoacetate (Aldrich 688983) was added, mixed and immediately thereafter, the absorbance at 340 nm (T1) by Multiscan (Labsystems) was measured. After 20 minutes incubation at room temperature the plate was measured again (T2).
The decrease in absorbance was calculated as (Absorbance before incubation T1)−(Absorbance following incubation T2).
as §4, §5

A2780 ovarian cells [4] = assay: A2780 Ovarian Cell Proliferation Assay in Lipid Reduced Medium, without Palmitate; assay type: cell-based; conditions: Homo sapiens, A2780; lipid reduced medium, without palmitate, 96 h, MTT; read-out: Proliferation A2780 w/o Palmitate pIC50 (converted)
Experimental: as §1
as §2, with “ethanol-BSA” for “palmitate-BSA”, “DMSO,” for “DMSO, 25 μM palmitate (Sigma, P0500, 10 mM stock solution in ethanol)”, “incubation” for “incubation,”
as §4, §5, §3

Compound | IC50 (A2780 ovarian cells [1]) | IC50 [2] | inhibition at 10 µM [2] | IC50 [3] | IC50 (A2780 ovarian cells [4])
Cc1ccc(C(=O)N2CCC(c3ccc(-c4cnn(C)c4)cc3)CC2)cc1NC(=O)C1CN(CCC(C)C)C1 [Compound 213, 1-isopentyl-N-(2-methyl-5-(4-(4-(1-methyl-1H-pyrazol-4-yl)phenyl)piperidine-1-carbonyl)phenyl)azetidine-3-carboxamide] | > 10 µM | 45.7 nM | 111% | 195 nM | 64.6 nM
Cc1ccc(C(=O)N2CCC(c3ccc(-c4cnn(C)c4)cc3)CC2)cc1NC(=O)C1CCN(C2CCC(C)C2)C1 (stereo not drawn) [Compound 194, N-(2-methyl-5-(4-(4-(1-methyl-1H-pyrazol-4-yl)phenyl)piperidine-1-carbonyl)phenyl)-1-(3-methylcyclopentyl)pyrrolidine-3-carboxamide] | ~8.71 µM | 117 nM | 102% | 214 nM | 158 nM
CC(C)Nc1ccc(C(=O)Nc2cc(C(=O)N3CC[C@H](c4ccc(-c5ccnn5C)cc4)[C@@H](O)C3)ccc2Cl)cn1 (racemic) [Compound #77, (±)-N-(2-chloro-5-((3R,4R)-3-hydroxy-4-(4-(1-methyl-1H-pyrazol-5-yl)phenyl)piperidine-1-carbonyl)phenyl)-6-(isopropylamino)nicotinamide] | 15.1 µM | 178 nM | 105% | 1070 nM | 851 nM
Cc1ccc(C(=O)N2CCC(c3ccc(-c4cnn(C)c4)cc3)C2)cc1NC(=O)c1ccc(NC(C)C)nc1 (stereo not drawn) [Compound 237, 6-(isopropylamino)-N-(2-methyl-5-(3-(4-(1-methyl-1H-pyrazol-4-yl)phenyl)pyrrolidine-1-carbonyl)phenyl)nicotinamide] | > 10 µM | 129 nM | 101% | 380 nM | 166 nM

Now those with a lower IC50 [2], led by results:

IC50 (A2780 ovarian cells [1]) | IC50 [2] | inhibition at 10 µM [2] | IC50 [3] | IC50 (A2780 ovarian cells [4]) | Compound
> 10 µM | 20.4 nM | 103% | 66.1 nM | 151 nM | Cc1ccc(C(=O)N2CCC(c3ccc(-c4cnn(C)c4)cc3)CC2)cc1NC(=O)C1CC1 [Compound #89, N-(2-methyl-5-(4-(4-(1-methyl-1H-pyrazol-4-yl)phenyl)piperidine-1-carbonyl)phenyl)cyclopropanecarboxamide]
3.02 µM | 27.5 nM | 100% | 24.5 nM | 53.7 nM | CC(C)Nc1ccc(C(=O)Nc2cc(C(=O)N3CC(c4ccc(-c5ccnc6ccccc56)cc4)C3)ccc2Cl)cn1 [Compound 63, N-(2-chloro-5-(3-(4-(quinolin-4-yl)phenyl)azetidine-1-carbonyl)phenyl)-6-(isopropylamino)nicotinamide]
~10 µM | 33.9 nM | 110% | 105 nM | 53.7 nM | CCCCCN1CCC(C(=O)Nc2cc(C(=O)N3CCC(c4ccc(-c5cnn(C)c5)cc4)CC3)ccc2C)CC1 [Compound 176, N-(2-methyl-5-(4-(4-(1-methyl-1H-pyrazol-4-yl)phenyl)piperidine-1-carbonyl)phenyl)-1-pentylpiperidine-4-carboxamide]
> 10 µM | 34.7 nM | 102% | 85.1 nM | ~302 nM | CCC(=O)NC1CC[C@@H](C(=O)Nc2cc(C(=O)N3CC(c4ccc(-c5ccnn5C)cc4)C3)ccc2C)C1 (stereo in doubt) [Compound 64, (1R,3S)—N-(2-methyl-5-(3-(4-(1-methyl-1H-pyrazol-5-yl)phenyl)azetidine-1-carbonyl)phenyl)-3-propionamidocyclopentanecarboxamide]
4.07 µM | 26.9 nM | 108% | 105 nM | 1350 nM | Cc1ccc(C(=O)N2CC(c3ccc(-c4cnn(C)c4)cc3)C2)cc1NC(=O)c1cnc(Cl)nc1 [Compound 154, 2-chloro-N-(2-methyl-5-(3-(4-(1-methyl-1H-pyrazol-4-yl)phenyl)azetidine-1-carbonyl)phenyl)pyrimidine-5-carboxamide]
